The source of these data is patent publication EP0942896B1, “SUBSTITUTED PHENOLS AND THIOPHENOLS USEFUL AS ANTIOXIDANT AGENTS” (Aventis Pharmaceuticals Inc., priority 1996, dated 1998).

The test system of one data set is Male Sprague-Dawley Rats. Briefly: Serum clinical chemistries in rats fed compound as dietary admixture. Format: in vivo. Particulars: % of control; alanine aminotransferase in rat serum; diet 0.3%, 4 days; N = 5. The source says: (§1) A typical experiment consists of 4-6 groups of rats (N = 5 per group) with I group being a control which receives no MDL compound and the other groups being treated with 0.3% MDL compound. Some of the compounds are either repeated at 0.3% or evaluated again at the lower dose of 0.1%. House Male Sprague-Dawley rats, 50-100 g, (Harlan Laboratories, Indianapolis, IN) in groups of 5, feeding ad libitum water and Purina Rodent chow (#5002) with or without MDL compound as a dietary admixture for 4 days. Make dietary admixtures (0.3%) by mixing 1.2 grams of an MDL compound with 400 grams of Purina rodent chow (#5002). Mix the MDL compound with approximately 50 grams of food using a mortar and pestle. This is added to the remainder of the food and mixed for 3 hours on a rotary mixer. In the morning of day 5, anesthetize non-fasted rats with carbon dioxide, and collect blood by cardiac puncture. Sacrifice rats by cervical dislocation. Record body weights and liver weights in grams. Record food consumption as grams • day^-1 • rat^-1. Deaths are recorded as mortality. Use aliquots of fresh serum for clinical chemistries, thiobarbituric acid reactive substances (TBARS) and conjugated diene measurements. Freeze aliquots of serum (∼ 0.5mL) and whole livers at -20°C for compound and metabolite concentration determination at a later time.
Allow blood to clot at room temperature for 30 minutes. Obtain serum after centrifugation for 10 min at 4°C at 3000 rpm in a Beckman J-6M/E centrifuge with a JS-4.2 rotor. Analyze fresh serum by a COBAS MIRA S autoanalyzer (Roche Diagnostics) using Roche diagnostic reagents for the following clinical chemistry measurements: alkaline phosphatase (ALP, kit # 44553), alanine transaminase (ALT, kit # 42375), aspartate aminotransferase (AST, kit # 42381), total cholesterol (CHOL, kit # 44334), triglyceride (TG, kit # 44120), and glucose (GLU, kit # 44558). Calculate ALP, ALT, and AST as units/L. Calculate cholesterol, triglycerides, and glucose as mg/dL.
As for `CC(C)=CCC[C@H](C)CCOc1cc(C(C)(C)C)c(O)c(C(C)(C)C)c1` [MDL 103,294, Phenol, 2,6-bis(1,1-dimethylethyl)-4-[(3,7-dimethyl-6-octenyl)oxy]-, (S)-], the ALT turned out to be 132%.
Still for that read-out and setting: the result for `CC(C)=CCCC(C)CCSc1cc(C(C)(C)C)c(O)c(C(C)(C)C)c1` (centres unmarked) [MDL 103,960, Phenol, 2,6-bis(1,1-dimethylethyl)-4-[(3,7-dimethyl-6-octenyl)thio]-] reads 117%.

Staying with this data set, now noted: % of control; alkaline phosphatase in rat serum; diet 0.3%, 4 days; N = 5.
For the molecule `CC(C)=CCC[C@H](C)CCOc1cc(C(C)(C)C)c(O)c(C(C)(C)C)c1` [MDL 103,294, Phenol, 2,6-bis(1,1-dimethylethyl)-4-[(3,7-dimethyl-6-octenyl)oxy]-, (S)-], the ALP worked out at 124%.
With `CC(C)=CCCC(C)CCSc1cc(C(C)(C)C)c(O)c(C(C)(C)C)c1` (centres unmarked) [MDL 103,960, Phenol, 2,6-bis(1,1-dimethylethyl)-4-[(3,7-dimethyl-6-octenyl)thio]-], the ALP was 125%.

The data set is the same for the next values; noted with them: % of control; aspartate aminotransferase in rat serum; diet 0.3%, 4 days; N = 5.
For `CC(C)=CCC[C@H](C)CCOc1cc(C(C)(C)C)c(O)c(C(C)(C)C)c1` [MDL 103,294, Phenol, 2,6-bis(1,1-dimethylethyl)-4-[(3,7-dimethyl-6-octenyl)oxy]-, (S)-], the AST was determined as 88%.
On the same count and under the same terms, the result for `CC(C)=CCCC(C)CCSc1cc(C(C)(C)C)c(O)c(C(C)(C)C)c1` (centres unmarked) [MDL 103,960, Phenol, 2,6-bis(1,1-dimethylethyl)-4-[(3,7-dimethyl-6-octenyl)thio]-] reads 102%.

The same data set, now with this note: % of control; glucose in rat serum; diet 0.3%, 4 days; N = 5.
Turning to `CC(C)=CCC[C@H](C)CCOc1cc(C(C)(C)C)c(O)c(C(C)(C)C)c1` [MDL 103,294, Phenol, 2,6-bis(1,1-dimethylethyl)-4-[(3,7-dimethyl-6-octenyl)oxy]-, (S)-], the GLUC amounted to 103%.
Still for that read-out and setting: the same measure for `CC(C)=CCCC(C)CCSc1cc(C(C)(C)C)c(O)c(C(C)(C)C)c1` (centres unmarked) [MDL 103,960, Phenol, 2,6-bis(1,1-dimethylethyl)-4-[(3,7-dimethyl-6-octenyl)thio]-]: 110%.

Staying with this data set, now noted: feed or water, 96 h; % of control; total cholesterol in rat serum; diet 0.3%, 4 days; N = 5; read-out: CHOL.
As for `CC(C)=CCC[C@H](C)CCOc1cc(C(C)(C)C)c(O)c(C(C)(C)C)c1` [MDL 103,294, Phenol, 2,6-bis(1,1-dimethylethyl)-4-[(3,7-dimethyl-6-octenyl)oxy]-, (S)-], the response vs control in vivo at 0.3 % in diet worked out at 102%.
On to `CC(C)=CCCC(C)CCSc1cc(C(C)(C)C)c(O)c(C(C)(C)C)c1` (centres unmarked) [MDL 103,960, Phenol, 2,6-bis(1,1-dimethylethyl)-4-[(3,7-dimethyl-6-octenyl)thio]-], for which the response vs control in vivo at 0.3 % in diet stood at 113%.

Staying with this data set, now noted: feed or water, 96 h; % of control; triglycerides in rat serum; diet 0.3%, 4 days; N = 5; read-out: TRIG.
For `CC(C)=CCC[C@H](C)CCOc1cc(C(C)(C)C)c(O)c(C(C)(C)C)c1` [MDL 103,294, Phenol, 2,6-bis(1,1-dimethylethyl)-4-[(3,7-dimethyl-6-octenyl)oxy]-, (S)-], the response vs control in vivo at 0.3 % in diet is 56%.
The same measure, in the same setting: the result for `CC(C)=CCCC(C)CCSc1cc(C(C)(C)C)c(O)c(C(C)(C)C)c1` (centres unmarked) [MDL 103,960, Phenol, 2,6-bis(1,1-dimethylethyl)-4-[(3,7-dimethyl-6-octenyl)thio]-] reads 80%.

For a further data set, the system named is ICAM-1. As to the kind of experiment: Inhibition of cytokine-induced ICAM-1 expression in human aortic smooth muscle cells (cell ELISA). Format: cell-based. Particulars: HASMC, tumor necrosis factor-alpha stimulated, average of two runs, numbers in parentheses represent negative values, read-out: ICAM-1 (% inh. 50 µM). The method, then:
(§2) Plate proliferating human umbilical vein endothelial cells (HUVEC) or human aortic smooth muscle cells (HASMC) from Clonetics (San Diego, CA) onto 96-well plates in 100 µL medium per well at 20,000 cells per cm^2. Maintain the cultures in growth medium (EGM or SMGM2, Clonetics, San Diego, CA) for two days prior to addition of cytokines or drugs. Add cytokines plus or minus compounds for 20 to 24 hours prior to analysis for adhesion molecule levels. Add tumor necrosis factor (Genzyme, Cambridge, MA) to cultures at 500-1000 units/mL to stimulate ICAM-1 expression. Add interleukin-4 (GIBCO-BRL, Gaithersburg, MD) to cultures at 100-200 pg/mL to stimulate VCAM-1 expression. […] Remove the culture medium, and wash the monolayers twice with Hanks buffered saline solution (HBSS) at room temperature. Add the primary antibody (anti-human VCAM-1 from Upstate Biotechnology, Inc., Lake Placid, NY or anti-human ICAM-1 from Immunotech, Inc., Westbrook, ME) to each well (1 µg/mL in HBSS plus 5% newborn calf serum, GIBCO-BRL, Gaithersburg, MD) and incubate at 37°C for 1 hr. Wash the wells twice with HBSS, then add 100 µL of a 1/1000 dilution of goat anti-mouse IgG conjugated to horse radish peroxidase (BioRad, Hercules, CA) in HBSS plus 5% newborn calf serum to each well and incubated for 1 hr at 37°C. Wash the wells three times with HBSS, then add 100 µL of TMB substrate (BioRad, Hercules, CA) to each well. Stop the reaction after blue color develops by addition of 50 µL of IN H2SO4. Measure absorbance at 450 nm with a plate reader.
(§3) Table 1 summarizes the ability of selected compounds of this invention to inhibit VCAM-1 and ICAM-1 using human aortic smooth muscle cells (HASMC). In these experiments, the cells were coincubated with interleukin-4 to stimulate VCAM-1 expression and with tumor necrosis factor-alpha to stimulate ICAM-1 expression.
On the technique in general: In an ELISA, binding on a coated surface is turned into a signal by an enzyme label.
For `CC(C)=CCCC(C)CCSc1cc(C(C)(C)C)c(O)c(C(C)(C)C)c1` (centres unmarked) [MDL 103,960, Phenol, 2,6-bis(1,1-dimethylethyl)-4-[(3,7-dimethyl-6-octenyl)thio]-], the inhibition at 50 µM came to 0%.

For the next data set, the system named is VCAM-1. Briefly: Inhibition of cytokine-induced VCAM-1 expression in human aortic smooth muscle cells (cell ELISA). Particulars: HASMC, interleukin-4 stimulated, average of three runs, read-out: VCAM-1 (% inh. 50 µM). Format: cell-based. On the procedure:
as §2, §3
With `CC(C)=CCCC(C)CCSc1cc(C(C)(C)C)c(O)c(C(C)(C)C)c1` (centres unmarked) [MDL 103,960, Phenol, 2,6-bis(1,1-dimethylethyl)-4-[(3,7-dimethyl-6-octenyl)thio]-], the inhibition at 50 µM is 33.9 ± 6%.

Test system in the next data set: not listed separately
As to the kind of experiment: Animal parameters (food, body weight, liver weight/body weight, mortality) in rats. Particulars: % of control; grams eaten per day per rat; diet 0.3%, 4 days; N = 5. It is filed as in vivo.
From the text: as §1
Molecule `CC(C)=CCC[C@H](C)CCOc1cc(C(C)(C)C)c(O)c(C(C)(C)C)c1` [MDL 103,294, Phenol, 2,6-bis(1,1-dimethylethyl)-4-[(3,7-dimethyl-6-octenyl)oxy]-, (S)-] displayed a food of 108%.
The same measure, in the same setting: the result for `CC(C)=CCCC(C)CCSc1cc(C(C)(C)C)c(O)c(C(C)(C)C)c1` (centres unmarked) [MDL 103,960, Phenol, 2,6-bis(1,1-dimethylethyl)-4-[(3,7-dimethyl-6-octenyl)thio]-] reads 105%.

The same data set, now with this note: % of control; liver weight/body weight; rat; diet 0.3%, 4 days; N = 5.
For the molecule `CC(C)=CCC[C@H](C)CCOc1cc(C(C)(C)C)c(O)c(C(C)(C)C)c1` [MDL 103,294, Phenol, 2,6-bis(1,1-dimethylethyl)-4-[(3,7-dimethyl-6-octenyl)oxy]-, (S)-], the lw/bw worked out at 129%.
Take `CC(C)=CCCC(C)CCSc1cc(C(C)(C)C)c(O)c(C(C)(C)C)c1` (centres unmarked) [MDL 103,960, Phenol, 2,6-bis(1,1-dimethylethyl)-4-[(3,7-dimethyl-6-octenyl)thio]-]: the lw/bw was 130%.

The same data set, now with this note: % of control; weight in grams; rat; diet 0.3%, 4 days; N = 5.
With `CC(C)=CCC[C@H](C)CCOc1cc(C(C)(C)C)c(O)c(C(C)(C)C)c1` [MDL 103,294, Phenol, 2,6-bis(1,1-dimethylethyl)-4-[(3,7-dimethyl-6-octenyl)oxy]-, (S)-], the body wt. came to 101%.
The same measure, in the same setting: the same measure for `CC(C)=CCCC(C)CCSc1cc(C(C)(C)C)c(O)c(C(C)(C)C)c1` (centres unmarked) [MDL 103,960, Phenol, 2,6-bis(1,1-dimethylethyl)-4-[(3,7-dimethyl-6-octenyl)thio]-]: 100%.

The same data set, now with this note: male, Sprague-Dawley, rat, in vivo, 4 days.
With `CC(C)=CCC[C@H](C)CCOc1cc(C(C)(C)C)c(O)c(C(C)(C)C)c1` [MDL 103,294, Phenol, 2,6-bis(1,1-dimethylethyl)-4-[(3,7-dimethyl-6-octenyl)oxy]-, (S)-], the mortality came to 0%.
On the same count and under the same terms, the result for `CC(C)=CCCC(C)CCSc1cc(C(C)(C)C)c(O)c(C(C)(C)C)c1` (centres unmarked) [MDL 103,960, Phenol, 2,6-bis(1,1-dimethylethyl)-4-[(3,7-dimethyl-6-octenyl)thio]-] reads 0%.

A further data set deals with ICAM-1. Briefly: Inhibition of ICAM-1 expression in proliferating human umbilical vein endothelial cells (cell ELISA). Format: cell-based. Particulars: HUVEC, coincubated with tumor necrosis factor-alpha about 20 to 24 hr, average of two runs, read-out: ICAM-1 (% inh. 50 µM). On the procedure: as §2, with “reader. […] In these experiments, the cells were coincubated with tumor necrosis factor-alpha along with the indicated compounds about 20 to 24 hr before assaying cell surface adhesion molecule expression.” for “reader.”
For the molecule `CC(C)=CCCC(C)CCSc1cc(C(C)(C)C)c(O)c(C(C)(C)C)c1` (centres unmarked) [MDL 103,960, Phenol, 2,6-bis(1,1-dimethylethyl)-4-[(3,7-dimethyl-6-octenyl)thio]-], the inhibition at 50 µM was determined as 9.5%.

In general, mortality refers to the percentage killed. Higher therefore signals a strong lethal effect.
